Drawing on US7745646B2, “Bicyclic heteroaryl inhibitors of PDE4” (Kalypsys, Inc., priority 2006, dated 2010), this text covers IC50 for 37 compounds.

For this experiment, the target named is T1, PDE4B (Homo sapiens, UniProt Q07343).
T1 construct: hex-histidine (His6) (N); made in house
T1 sequence (Q07343 330-659 limits assumed, species assumed): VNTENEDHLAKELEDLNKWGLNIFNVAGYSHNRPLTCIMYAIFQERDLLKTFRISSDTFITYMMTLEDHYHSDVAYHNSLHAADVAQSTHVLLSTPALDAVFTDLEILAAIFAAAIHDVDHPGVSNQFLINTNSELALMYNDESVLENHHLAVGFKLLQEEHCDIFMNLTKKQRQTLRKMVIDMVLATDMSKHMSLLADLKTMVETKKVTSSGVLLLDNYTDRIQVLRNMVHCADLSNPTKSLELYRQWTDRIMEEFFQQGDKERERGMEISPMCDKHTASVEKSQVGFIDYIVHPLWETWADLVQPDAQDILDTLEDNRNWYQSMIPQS
In words: Novel coupled PDE/AK bioluminescent assay, PDE4B inhibition. The format is biochemical. To be noted: PDE4B catalytic domain.
Excerpt: We developed a novel coupled PDE/AK bioluminescent high-throughput assay to measure the activity of phosphodiesterases. In the PDE/AK assay, the AMP produced from the hydrolysis of cAMP by phosphodiesterase is converted to adenosine diphosphate (ADP) by the phosphotransferase activity of adenylate kinase (also known as ADK or myokinase). Adenylate kinase will catalyze the conversion of 1 mole of AMP and 1 mole of ATP into 2 moles of ADP. Thus the conversion of AMP to ADP will result in the subsequent loss of ATP. The decrease in ATP concentration can be monitored as light output using luciferase in a reaction that requires ATP to produce light. The PDE/AK assay uses luciferase, which catalyzes the production of light from ATP present in the reaction mix. The amount of emitted light is inversely proportional to the level of AMP present in the reaction. Test compounds are incubated with the phosphodiesterases and phosphodiesterase inhibitors will decrease the rate of cAMP hydrolysis and decrease the subsequent production of AMP.
A novel coupled PDE/AK assay was utilized to measure the inhibitory activity of compounds on PDE isoforms. The catalytic domain of PDE4B was fused to an amino-terminus hex-histidine affinity tag and purified. PDE4B enzyme was incubated with compounds for 10 minutes. Cyclic AMP substrate, ATP and adenylate kinase were then added to the PDE enzyme mix and incubated for 45 minutes at room temperature. A commercial ATP detection assay, Perkin Elmer's easyLite ATP detection reagent, was then added to measure the relative amount of ATP present in the reaction. After 10 minute incubation, the luminescent signal was quantitated with either the Perkin Elmer Viewlux or Molecular Devices Acquest or Analyst.
One may read the IC50 as the midpoint of a concentration-inhibition curve. Read a high IC50 as a need for much substance. Consider `COc1ccc2c(Nc3c(Cl)cncc3Cl)cc(=O)oc2c1OCCCCBr` [Example 25, 8-(4-Bromobutoxy)-4-(3,5-dichloropyridin-4-ylamino)-7-methoxy-2H-chromen-2-one], for which the half-inhibitory concentration (IC50) was under 1 µM.
In the case of `CCCCN(C)CCCCCOc1c(OC)ccc2c(Nc3c(Cl)cncc3Cl)cc(=O)oc12` [Example 90, 8-(5-(Butyl(methyl)amino)pentyloxy)-4-(3,5-dichloropyridin-4-ylamino)-7-methoxy-2H-chromen-2-one], the IC50 is under 1 µM.
For the compound `COc1ccc2c(Nc3c(Cl)cncc3Cl)cc(=O)oc2c1OCCCCCC(=O)NCC(=O)O` [Example 96, 2-(6-(4-(3,5-Dichloropyridin-4-ylamino)-7-methoxy-2-oxo-2H-chromen-8-yloxy)hexanamido)acetic acid], the IC50 was under 1 µM.
Turning to `COc1ccc2c(Nc3c(C)cccc3Cl)cc(=O)oc2c1OC1CCCC1` [Example 18, 4-(2-Chloro-6-methylphenylamino)-8-(cyclopentyloxy)-7-methoxy-2H-chromen-2-one], the IC50 is under 1 µM.
`COc1ccc2c(Nc3c(Cl)cncc3Cl)cc(=O)oc2c1OCCCCCN` [Example 68, 8-(5-Aminopentyloxy)-4-(3,5-dichloropyridin-4-ylamino)-7-methoxy-2H-chromen-2-one] had an IC50 of under 1 µM.
In the case of `COC(=O)[C@H](C)NC(=O)CCCCCOc1c(OC)ccc2c(Nc3c(Cl)cncc3Cl)cc(=O)oc12` [Example 95, (S)-Methyl 2-(6-(4-(3,5-dichloropyridin-4-ylamino)-7-methoxy-2-oxo-2H-chromen-8-yloxy)hexanamido)propanoate], the IC50 is under 1 µM.
Regarding `COc1ccc2c(Nc3c(Cl)cncc3Cl)cc(=O)oc2c1OCCCCCCC(=O)O` [Example 65, 7-(4-(3,5-Dichloropyridin-4-ylamino)-7-methoxy-2-oxo-2H-chromen-8-yloxy)heptanoic acid], the IC50 was under 1 µM.
In turn, `COc1ccc2c(Nc3c(Cl)cncc3Cl)cc(=O)oc2c1OCCCCCn1ncnn1` [Example 101, 8-(5-(2H-Tetrazol-2-yl)pentyloxy)-4-(3,5-dichloropyridin-4-ylamino)-7-methoxy-2H-chromen-2-one] returned a 50% inhibitory concentration (IC50) of under 1 µM.
In turn, `COc1ccc2c(NCC(N)=O)cc(=O)oc2c1OC1CCCC1` [Example 9, 2-(8-(Cyclopentyloxy)-7-methoxy-2-oxo-2H-chromen-4-ylamino)acetamide] came in with an IC50 of over 1 µM.
The compound `COC(=O)COc1c(OC)ccc2c(Nc3c(Cl)cncc3Cl)cc(=O)oc12` [Example 45, Methyl 2-(4-(3,5-dichloropyridin-4-ylamino)-7-methoxy-2-oxo-2H-chromen-8-yloxy)acetate] registered an IC50 of under 1 µM.
As to `COc1ccc2c(Nc3c(Cl)cncc3Cl)cc(=O)oc2c1OCCOCCBr` [Example 62, 8-(2-(2-Bromoethoxy)ethoxy)-4-(3,5-dichloropyridin-4-ylamino)-7-methoxy-2H-chromen-2-one], the IC50 is under 1 µM.
The value for `COc1ccc2c(Nc3c(Cl)cncc3C(=O)O)cc(=O)oc2c1OC1CCCC1` [Example 22, 5-Chloro-4-(8-(cyclopentyloxy)-7-methoxy-2-oxo-2H-chromen-4-ylamino)nicotinic acid] was over 1 µM; that for `COC(=O)CCCCCOc1c(OC)ccc2c(N(C)c3c(Cl)cncc3Cl)cc(=O)oc12` [Example 59, Methyl 6-(4-((3,5-dichloropyridin-4-yl)(methyl)amino)-7-methoxy-2-oxo-2H-chromen-8-yloxy)hexanoate] was over 1 µM; that for `COc1ccc2c(Nc3c(Cl)cncc3Cl)cc(=O)oc2c1OCCCCCO[C@@H]1O[C@H](COC(C)=O)[C@@H](OC(C)=O)[C@H](OC(C)=O)[C@H]1OC(C)=O` [Example 75, (2R,3R,4S,5R,6R)-2-(Acetoxymethyl)-6-(5-(4-(3,5-dichloropyridin-4-ylamino)-7-methoxy-2-oxo-2H-chromen-8-yloxy)pentyloxy)tetrahydro-2H-pyran-3,4,5-triyl triacetate] was under 1 µM.
Compound `COc1ccc2c(Nc3c(Cl)cncc3Cl)cc(=O)oc2c1OCCCCCN(C)CCN(C)C` [Example 93, 4-(3,5-Dichloropyridin-4-ylamino)-8-(5-((2-(dimethylamino)ethyl)(methyl)amino)pentyloxy)-7-methoxy-2H-chromen-2-one] registered an IC50 of under 1 µM.
`COC(=O)CCCCCOc1c(OC)ccc2c(Nc3c(Cl)cncc3Cl)cc(=O)oc12` [Example 58, Methyl 6-(4-(3,5-dichloropyridin-4-ylamino)-7-methoxy-2-oxo-2H-chromen-8-yloxy)hexanoate] returned an IC50 of under 1 µM.
In the case of `COc1ccc2c(Nc3c(Cl)cncc3Cl)cc(=O)oc2c1OCCCCCOC(C)=O` [Example 61, 5-(4-(3,5-Dichloropyridin-4-ylamino)-7-methoxy-2-oxo-2H-chromen-8-yloxy)pentyl acetate], the IC50 was under 1 µM.
Compound `CCCN(C)CCCCCOc1c(OC)ccc2c(Nc3c(Cl)cncc3Cl)cc(=O)oc12` [Example 89, 4-(3,5-Dichloropyridin-4-ylamino)-7-methoxy-8-(5-(methyl(propyl)amino)pentyloxy)-2H-chromen-2-one] returned an IC50 of under 1 µM.
`COc1ccc2c(Nc3c(Cl)cncc3Cl)cc(=O)oc2c1OCCCCCCCN(C)C` [Example 80, 4-(3,5-Dichloropyridin-4-ylamino)-8-(7-(dimethylamino)heptyloxy)-7-methoxy-2H-chromen-2-one]: the IC50 was under 1 µM.
Consider `COc1ccc2c(Nc3c(Cl)cncc3Cl)cc(=O)oc2c1OCc1ccccc1` [Example 26, 8-(Benzyloxy)-4-(3,5-dichloropyridin-4-ylamino)-7-methoxy-2H-chromen-2-one], for which the IC50 was under 1 µM.
`CCOC(=O)CNc1cc(=O)oc2c(OC3CCCC3)c(OC)ccc12` [Example 8, Ethyl 2-(8-(cyclopentyloxy)-7-methoxy-2-oxo-2H-chromen-4-ylamino)acetate] came in with an IC50 of over 1 µM.
For the compound `COc1ccc2c(Cc3c(Cl)cncc3Cl)cc(=O)oc2c1OC1CCCC1` [Example 2, 8-(Cyclopentyloxy)-4-[(3,5-dichloropyridin-4-yl)methyl]-7-methoxy-2H-chromen-2-one], the IC50 was under 1 µM.
The compound `COc1ccc2c(Nc3c(Cl)cncc3Cl)cc(=O)oc2c1OCCCCCn1cnnn1` [Example 102, 8-(5-(1H-Tetrazol-1-yl)pentyloxy)-4-(3,5-dichloropyridin-4-ylamino)-7-methoxy-2H-chromen-2-one] returned an IC50 of under 1 µM.
Turning to `COc1ccc2c(Nc3c(Cl)cncc3Cl)cc(=O)oc2c1OCCCCCn1nccn1` [Example 99, 8-(5-(2H-1,2,3-Triazol-2-yl)pentyloxy)-4-(3,5-dichloropyridin-4-ylamino)-7-methoxy-2H-chromen-2-one], the IC50 is under 1 µM.
In the case of `COc1ccc2c(Nc3c(Cl)cncc3Cl)cc(=O)oc2c1OC[C@@H]1OC(=O)[C@H]2OC(C)(C)O[C@@H]12` [Example 50, 4-(3,5-Dichloropyridin-4-ylamino)-8-(((3aS,4S,6aS)-2,2-dimethyl-6-oxotetrahydrofuro[3,4-d][1,3]dioxol-4-yl)methoxy)-7-methoxy-2H-chromen-2-one], the IC50 is under 1 µM.
To `COc1ccc2c(Nc3c(Cl)cncc3Cl)cc(=O)oc2c1OCCCCOC(C)=O` [Example 86, 4-(4-(3,5-Dichloropyridin-4-ylamino)-7-methoxy-2-oxo-2H-chromen-8-yloxy)butyl acetate] belongs under 1 µM; to `COc1ccc2c(Nc3c(Cl)cncc3Cl)cc(=O)oc2c1OCCCC(=O)O` [Example 42, 4-(4-(3,5-Dichloropyridin-4-ylamino)-7-methoxy-2-oxo-2H-chromen-8-yloxy)butanoic acid], under 1 µM; to `COc1ccc2c(Nc3c(Cl)cncc3Cl)cc(=O)oc2c1OC` [Example 64, 4-(3,5-Dichloropyridin-4-ylamino)-7,8-dimethoxy-2H-chromen-2-one], under 1 µM.
Consider `COc1ccc2c(Nc3c(Cl)cncc3Cl)cc(=O)oc2c1OCCCCCOP(=O)(O)O` [Example 104, 5-(4-(3,5-Dichloropyridin-4-ylamino)-7-methoxy-2-oxo-2H-chromen-8-yloxy)pentyl dihydrogen phosphate], for which the IC50 is under 1 µM.
On to `COc1ccc2c(NCC(=O)NO)cc(=O)oc2c1OC1CCCC1` [Example 10, 2-(8-(Cyclopentyloxy)-7-methoxy-2-oxo-2H-chromen-4-ylamino)-N-hydroxyacetamide], for which the IC50 was under 1 µM.
`COc1ccc2c(Nc3c(Cl)cncc3Cl)cc(=O)oc2c1OCCCCN(C)C` [Example 27, 4-(3,5-Dichloropyridin-4-ylamino)-8-(4-(dimethylamino)butoxy)-7-methoxy-2H-chromen-2-one] yielded an IC50 of under 1 µM.
The value for `COc1ccc2c(Nc3c(Cl)cncc3Cl)cc(=O)oc2c1OCCCCC(=O)O` [Example 43, 5-(4-(3,5-Dichloropyridin-4-ylamino)-7-methoxy-2-oxo-2H-chromen-8-yloxy)pentanoic acid] was under 1 µM.
Compound `COc1ccc2c(Nc3c(Cl)cncc3Cl)cc(=O)oc2c1OCCCCCCCCC(=O)O` [Example 67, 9-(4-(3,5-Dichloropyridin-4-ylamino)-7-methoxy-2-oxo-2H-chromen-8-yloxy)nonanoic acid] came in with an IC50 of under 1 µM.
As for `COc1ccc2c(Nc3c(Cl)cncc3Cl)cc(=O)oc2c1O[C@@H]1O[C@H](CO)[C@@H](O)[C@H](O)[C@H]1O` [Example 77, 4-(3,5-Dichloropyridin-4-ylamino)-7-methoxy-8-((2S,3R,4S,5S,6R)-3,4,5-trihydroxy-6-(hydroxymethyl)tetrahydro-2H-pyran-2-yloxy)-2H-chromen-2-one], the concentration for half-maximal inhibition (IC50) was over 1 µM.
Compound `COc1ccc2c(Nc3c(Cl)cncc3Cl)cc(=O)oc2c1OCc1ccc([N+](=O)[O-])cc1` [Example 35, 4-(3,5-Dichloropyridin-4-ylamino)-7-methoxy-8-(4-nitrobenzyloxy)-2H-chromen-2-one] showed an IC50 of under 1 µM.
For the compound `COc1ccc2c(Nc3c(Cl)cncc3Br)cc(=O)oc2c1OC1CCCC1` [Example 11, 4-(3-Bromo-5-chloropyridin-4-ylamino)-8-(cyclopentyloxy)-7-methoxy-2H-chromen-2-one], the IC50 is under 1 µM.
The value for `COc1ccc2c(Nc3c(Cl)cncc3Cl)cc(=O)oc2c1OCC(=O)NO` [Example 88, 2-(4-(3,5-Dichloropyridin-4-ylamino)-7-methoxy-2-oxo-2H-chromen-8-yloxy)-N-hydroxyacetamide] was under 1 µM.
